From article PMC8286840, “Identifying SARS-CoV-2 antiviral compounds by screening for small molecule inhibitors of Nsp3 papain-like protease” (Biochemical Journal, 2021)
Structures can show the parent of a compound that is named as a salt. Where two headings read alike, the source gives them in different places.

What was measured:
[1] = molecular target: T1, SARS-CoV-2 PLpro (nsp3 1564–1878) (Severe acute respiratory syndrome coronavirus 2, UniProt P0DTD1); test: biochemical; design: FRET-quenched peptide (Pro3) cleavage by PLpro, 10 min pre-incubation, slope over 20 min, normalised to no-compound control; details: read-out: % of control remaining
[2] = molecular target: T1, SARS-CoV-2 PLpro (nsp3 1564–1878); test: biochemical; design: FRET-quenched peptide (Pro3) cleavage by PLpro, 10 min pre-incubation, slope over 20 min, normalised to no-compound control; details: read-out: % of control remaining; remark: listed apart in the source

O=C(CCCc1ccc(-c2ccccc2F)cc1)Nc1ccc(O)cc1 [MK2a Inhibitor]
remaining activity at 1.25 µM ([1]; Well no.=2548, low concentration screen): 94.2%
remaining activity at 3.75 µM ([2]; Well no.=2548, high concentration screen): 102%

CC(C)Oc1ccc2c(=O)c(-c3ccccc3)coc2c1 [Ipriflavone]
remaining activity at 1.25 µM ([1]; Well no.=5242, low concentration screen): 95.6%
remaining activity at 3.75 µM ([2]; Well no.=5242, high concentration screen): 97.9%

COc1c2c(nc3ccccc13)OC(C(C)(O)CO)C2 (centres unmarked) [Dubinidine]
remaining activity at 1.25 µM ([1]; Well no.=486, low concentration screen): 106%
remaining activity at 1.25 µM ([1]; Well no.=3115, low concentration screen): 102%
remaining activity at 3.75 µM ([2]; Well no.=486, high concentration screen): 105%
remaining activity at 3.75 µM ([2]; Well no.=3115, high concentration screen): 104%

CC(C)N1CCC(N2CCCN(c3cccc(C(=O)Nc4ccncc4)n3)CC2)CC1 [USL311]
remaining activity at 1.25 µM ([1]; Well no.=8707, low concentration screen): 99.4%
remaining activity at 3.75 µM ([2]; Well no.=8707, high concentration screen): 103%

CC(=O)O/N=C1\C(=O)N(Cc2cc(Cl)ccc2Cl)c2ccc(Cl)cc21 [LDN-57444]
remaining activity at 1.25 µM ([1]; Well no.=5908, low concentration screen): 94.9%
remaining activity at 3.75 µM ([2]; Well no.=5908, high concentration screen): 91.7%

CCCCCCCCCCCCCCCCCCOCC(COP(=O)([O-])OCC[N+](C)(C)C)OC (centres unmarked) [ET-18-OCH3]
remaining activity at 1.25 µM ([1]; Well no.=502, low concentration screen): 104%
remaining activity at 3.75 µM ([2]; Well no.=502, high concentration screen): 102%

C[N@+]1(CC2CC2)CC[C@]23c4c5ccc(O)c4O[C@H]2C(=O)CC[C@@]3(O)[C@H]1C5 [Methylnaltrexone (Bromide)]
remaining activity at 1.25 µM ([1]; Well no.=8091, low concentration screen): 97.4%
remaining activity at 3.75 µM ([2]; Well no.=8091, high concentration screen): 102%

CCCc1c2oc(C(=O)O)cc(=O)c2cc2c(=O)cc(C(=O)O)n(CC)c12 [Nedocromil]
remaining activity at 1.25 µM ([1]; Well no.=6525, low concentration screen): 95.3%
remaining activity at 3.75 µM ([2]; Well no.=6525, high concentration screen): 95%

COc1cn(-c2ccc(-n3cccn3)cc2F)nc(-c2ccnn2-c2ccccc2)c1=O [TAK-063]
remaining activity at 1.25 µM ([1]; Well no.=8728, low concentration screen): 98.2%
remaining activity at 3.75 µM ([2]; Well no.=8728, high concentration screen): 94.2%

CC(C)C[C@H](NC(=O)CNC(=O)c1cc(Cl)ccc1Cl)B1OC(=O)C(CC(=O)O)(CC(=O)O)O1 [MLN9708]
remaining activity at 1.25 µM ([1]; Well no.=4810, low concentration screen): 101%
remaining activity at 3.75 µM ([2]; Well no.=4810, high concentration screen): 103%

N#Cc1cc(CN2CCC(Nc3ncnc4sc(Cl)cc34)CC2)ccc1F [PRX-08066]
remaining activity at 1.25 µM ([1]; Well no.=4792, low concentration screen): 101%
remaining activity at 3.75 µM ([2]; Well no.=4792, high concentration screen): 97.9%

COC(=O)[C@H]1[C@H]2C[C@H]3c4[nH]c5ccccc5c4CCN3C[C@@H]2CC[C@@H]1O [Corynanthine]
remaining activity at 1.25 µM ([1]; Well no.=3795, low concentration screen): 97.4%
remaining activity at 3.75 µM ([2]; Well no.=3795, high concentration screen): 103%

O=C1NC(=O)C(c2ccccc2)(c2ccccc2)N1 [5,5-Diphenylhydantoin]
remaining activity at 1.25 µM ([1]; Well no.=641, low concentration screen): 99.8%
remaining activity at 3.75 µM ([2]; Well no.=641, high concentration screen): 98.3%

CCN1C[C@]2(C)CC[C@H](OC)[C@@]34C1[C@]1(OCO[C@@]15C[C@H](OC)[C@H]1C[C@]3(O)[C@@H]5[C@H]1OC)[C@@H](OC(C)=O)[C@H]24 [Deltaline]
remaining activity at 1.25 µM ([1]; Well no.=3111, low concentration screen): 101%
remaining activity at 3.75 µM ([2]; Well no.=3111, high concentration screen): 103%

CC(C)C[C@H]1C(=O)N2CCC[C@H]2[C@]2(O)O[C@](NC(=O)[C@@H]3C=C4c5cccc6[nH]c(Br)c(c56)C[C@H]4N(C)C3)(C(C)C)C(=O)N12 [Bromocriptine mesylate]
remaining activity at 1.25 µM ([1]; Well no.=1811, low concentration screen): 92.4%
remaining activity at 1.25 µM ([1]; Well no.=3485, low concentration screen): 104%
remaining activity at 3.75 µM ([2]; Well no.=1811, high concentration screen): 91.6%
remaining activity at 3.75 µM ([2]; Well no.=3485, high concentration screen): 101%

CC1=NN(c2ccccc2)C(=O)C1 [MCI-186]
remaining activity at 1.25 µM ([1]; Well no.=3901, low concentration screen): 103%
remaining activity at 3.75 µM ([2]; Well no.=3901, high concentration screen): 103%

COC[C@H](NC(=O)c1cnc(C)s1)C(=O)N[C@@H](COC)C(=O)N[C@@H](Cc1ccccc1)C(=O)[C@@]1(C)CO1 [Oprozomib (ONX 0912)]
remaining activity at 1.25 µM ([1]; Well no.=4976, low concentration screen): 90.1%
remaining activity at 3.75 µM ([2]; Well no.=4976, high concentration screen): 89.5%

Cc1onc(-c2ccccc2Cl)c1C(=O)N[C@@H]1C(=O)N2[C@@H]1SC(C)(C)[C@@H]2C(=O)O [Cloxacillin (sodium monohydrate)]
remaining activity at 1.25 µM ([1]; Well no.=7556, low concentration screen): 101%
remaining activity at 3.75 µM ([2]; Well no.=7556, high concentration screen): 103%

Clc1ccccc1C(c1ccccc1)(c1ccccc1)n1cccn1 [TRAM-34]
remaining activity at 1.25 µM ([1]; Well no.=4707, low concentration screen): 107%
remaining activity at 3.75 µM ([2]; Well no.=4707, high concentration screen): 103%

Cc1ccc([C@@H]2O[C@H](CO)[C@@H](O)[C@H](O)[C@H]2O)cc1Cc1ccc(-c2ccc(F)cc2)s1 [Canagliflozin]
remaining activity at 1.25 µM ([1]; Well no.=5075, low concentration screen): 94.6%
remaining activity at 3.75 µM ([2]; Well no.=5075, high concentration screen): 95.2%

COCCCN1CCC(NC(=O)c2cc(Cl)c(N)c3c2OCC3)CC1 [Prucalopride]
remaining activity at 1.25 µM ([1]; Well no.=4835, low concentration screen): 99.7%
remaining activity at 1.25 µM ([1]; Well no.=8143, low concentration screen): 103%
remaining activity at 3.75 µM ([2]; Well no.=4835, high concentration screen): 98.1%
remaining activity at 3.75 µM ([2]; Well no.=8143, high concentration screen): 101%

CCN(CC)CCCC(C)Nc1cc(/C=C/c2ccccc2Cl)nc2cc(Cl)ccc12 (centres unmarked) [XIB4035]
remaining activity at 1.25 µM ([1]; Well no.=5692, low concentration screen): 89%
remaining activity at 3.75 µM ([2]; Well no.=5692, high concentration screen): 89.5%

COc1ccc(/C=C/c2cc(OC)cc(=O)o2)cc1 [Yangonin]
remaining activity at 1.25 µM ([1]; Well no.=3765, low concentration screen): 90.2%
remaining activity at 3.75 µM ([2]; Well no.=3765, high concentration screen): 90.6%

CNC1CCCN(c2c(F)cc3c(=O)c(C(=O)O)cn(C4CC4)c3c2OC)C1 (centres unmarked) [Balofloxacin]
remaining activity at 1.25 µM ([1]; Well no.=5058, low concentration screen): 95.8%
remaining activity at 3.75 µM ([2]; Well no.=5058, high concentration screen): 97.3%

CC(C)CC(=O)NCC(=O)O [N-Isovaleroylglycine]
remaining activity at 1.25 µM ([1]; Well no.=6643, low concentration screen): 110%
remaining activity at 3.75 µM ([2]; Well no.=6643, high concentration screen): 122%

C[C@@H]1C[C@H]2CC[C@H](O2)[C@H](C)C(=O)O[C@@H](C)C[C@@H]2CC[C@@H](O2)[C@@H](C)C(=O)O[C@H](C)C[C@H]2CC[C@H](O2)[C@H](C)C(=O)O[C@@H](C)C[C@@H]2CC[C@@H](O2)[C@@H](C)C(=O)O1 [Nonactin]
remaining activity at 1.25 µM ([1]; Well no.=3330, low concentration screen): 95.5%
remaining activity at 3.75 µM ([2]; Well no.=3330, high concentration screen): 94.1%

CNCCCN1c2ccccc2CCc2ccccc21 [Desipramine hydrochloride]
remaining activity at 1.25 µM ([1]; Well no.=545, low concentration screen): 99.2%
remaining activity at 3.75 µM ([2]; Well no.=545, high concentration screen): 101%

CC(C)C[C@H](NC(=O)[C@H](Cc1ccccc1)NC(=O)CNC(=O)[C@@H](C)NC(=O)[C@@H](N)Cc1ccc(O)cc1)C(=O)O [[D-Ala2]leucine-enkephalin]
remaining activity at 1.25 µM [1]: 101%
remaining activity at 3.75 µM [2]: 98.6%

COc1ccccc1C(=O)O [2-Methoxybenzoic acid]
remaining activity at 1.25 µM ([1]; Well no.=6583, low concentration screen): 103%
remaining activity at 3.75 µM ([2]; Well no.=6583, high concentration screen): 101%

NCc1c[nH]c(=S)n1[C@@H]1CCc2c(F)cc(F)cc2C1 [(R)-Nepicastat HCl]
remaining activity at 1.25 µM ([1]; Well no.=8886, low concentration screen): 91.4%
remaining activity at 3.75 µM ([2]; Well no.=8886, high concentration screen): 92%

Nc1ncnc2c1nc(Sc1ccc(Cl)cc1)n2C1OC2COP(=O)(O)O[C@@H]2[C@@H]1O (some centres unmarked) [8-(4-Chlorophenylthio)-cAMP sodium]
remaining activity at 1.25 µM ([1]; Well no.=126, low concentration screen): 104%
remaining activity at 3.75 µM ([2]; Well no.=126, high concentration screen): 105%

CCN(CC)CCOC(=O)c1cc(Cl)c(N)cc1OC [SDZ-205,557 hydrochloride]
remaining activity at 1.25 µM ([1]; Well no.=1327, low concentration screen): 101%
remaining activity at 3.75 µM ([2]; Well no.=1327, high concentration screen): 100%

COc1nc(C)cnc1NS(=O)(=O)c1cccnc1-c1ccc(-c2nnco2)cc1 [Zibotentan]
remaining activity at 1.25 µM ([1]; Well no.=6318, low concentration screen): 98.5%
remaining activity at 3.75 µM ([2]; Well no.=6318, high concentration screen): 98.2%

O=c1cc(N2CCOCC2)oc2c(-c3ccccc3)cccc12 [LY 294002]
remaining activity at 1.25 µM ([1]; Well no.=2465, low concentration screen): 101%
remaining activity at 3.75 µM ([2]; Well no.=2465, high concentration screen): 102%
